The values that follow come from patent US7294715B2, “Aporphine and oxoaporphine compounds and pharmaceutical use thereof” (Lotus Pharmaceutical Co., Ltd., priority 2003, dated 2007).

Series [1] relates to Langendorff perfused rat hearts. In words: Coronary flow in Langendorff perfused rat hearts. Conditions: FIG. 3. The procedure:
Adult male Wistar rats weighing 275-325 g, were intraperitoneally anesthetized with sodium pentobarbital (50 mg·kg^−1) and given heparin (300 Ukg·kg^−1) by the same route. Hearts were rapidly excised and immersed in 37° C. perfusion medium. The aorta was cannulated and retrograde-perfused at 80 mmHg with Tyrode's solution containing 120 mM NaCl, 25 mM NaHCO3, 3 mM KCl, 1.2 mM NaH2PO4, 2.5 mM CaCl2, 1.2 mM MgCl2, and […] 5.5 mM glucose. The perfusate was equilibrated with 95% O2, 5% CO2 at 37° C. Perfusion pressure was monitored using a MLT844/D pressure transducer (Capto, Horten, Norway) connected to a PowerLab (ADInstruments, Castle Hill, Australia). The coronary effluent was collected for the measurement of coronary flow.

The subject of a further series is eNOS. In words: Western blot analysis for eNOS protein in ischemia-reperfusion rat heart. It counts as in vivo. Conditions: ischemia 25 min, reperfusion 2 h, 0.5 mg/kg at 5 min prior to reperfusion, P<0.05 vs vehicle. The procedure:
To elucidate the effects of the test compounds on the infarct size caused by regional myocardial ischemia and reperfusion, all animals were randomized into 8 study groups. The first group (Sham) comprised of animals not subjected to regional myocardial ischemia (25 min) followed by reperfusion (2 h) and treated with vehicle (1 ml/kg) 5 minutes prior to the onset of reperfusion. The second group of animals were subjected to regional myocardial ischemia (25 min) followed by reperfusion (2 h) and were treated with vehicle (saline, 1 ml/kg). […]
Hearts were pulverized at −80° C. using liquid nitrogen and a stainless steel pestle and mortar. […] Total protein concentrations were determined using the Bradford method (Bio-Rad, UK). […] Signals were detected using the enhanced chemiluminescence (ECL™) detection system (Cell Signaling Technology, U.S.A.) and autoradiographic film. For quantification of protein expression all blots were reprobed for muscle α-actin expression using 1/2000 dilution of a mouse anti-human actin (muscle antibody (Serotec), followed by incubation with a goat anti-mouse HRP linked secondary antibody ( 1/2000 dilution) (DakoCytomation, Denmark). Densitometry analysis was performed on scanned images (Hewlett Packard Scanjet) and analyzed using Scion Image (Scion Corp, National Institutes of Health, Bethesda, Md.).
A general note: Immunoblotting shows a protein as a band on a membrane.

Series [2] relates to regional myocardial ischemia and reperfusion (LAD occlusion). The experiment in a line: Infarct size in a rat model of regional myocardial ischemia and reperfusion. It counts as in vivo. To be noted: rat, LAD occlusion 25 min, reperfusion 2 h; 0.5 mg/kg i.v.; vehicle 58±2%; P<0.05 vs vehicle. The procedure: Seventy two male Wistar rats (215-300 g, Charles River, Margate, U.K.) were anaesthetized with thiopentone sodium (Intraval®, 120 mg/kg i.p.; Rhone-Merrieux, Essex, U.K.). The rats were tracheotomised and ventilated with a Harvard ventilator (70 strokes/min, tidal volume: 8-10 ml/kg, inspiratory oxygen concentration: 30%). Body temperature was maintained at 38±1° C. The right carotid artery was cannulated and connected to a pressure transducer (MLT 844, AD Instruments Ltd, Hastings, UK) to monitor mean arterial blood pressure and heart rate, which were continuously recorded on a data acquisition system (Powerlab® Version 4.0.4, AD Instruments, Hastings, UK) installed on a Dell Dimension 4100 personal computer, throughout the experiment. The right jugular vein was cannulated for the administration of test compound and Evans Blue dye (at the end of the experiment). A parasternal thoracotomy was performed, the heart was suspended in a temporary pericardial cradle and a snare occluder was placed around the left anterior descending coronary artery (LAD). After completion of the surgical procedure the animals were allowed to stabilize for 30 min before LAD ligation. The coronary artery was occluded at time 0 by tightening of the occluder. After 25 min of acute myocardial ischemia, the occluder was released to allow reperfusion for 2 h.
The test compounds were administered as a slow intravenous injection (i.v.) 5 min prior to the onset of reperfusion of the ischemic heart. Following the 2 h reperfusion period, the coronary artery was re-occluded and Evans Blue dye (1 ml of 2% w/v) was injected into the left ventricle, via the right jugular vein cannula, to distinguish between perfused and non-perfused (AAR) sections of the heart. The Evans Blue solution stains the perfused myocardium, while the occluded vascular bed remains uncolored. The animals were sacrificed with an overdose of anesthetic and the heart excised. The heart was sectioned into slices of 3-4 mm thick, the right ventricular wall was removed, and the AAR (pink) was separated from the non-ischemic (blue) area. […]

Series [3] concerns focal cerebral ischemia-reperfusion rats. The experiment in a line: Striatal blood flow in focal cerebral ischemia-reperfusion rats (laser Doppler flowmetry). Format: in vivo, rat. To be noted: 40-min common carotid occlusion plus endothelin-1, 24-hrs reperfusion, FIG. 4.
Series [4] in a line: Serum glucose levels in NIDDM animals. It counts as in vivo, mouse. Conditions: NIDDM rats, n=5, vehicle 0.
The test system of another series is MCAO rats. In words: Middle cerebral artery occlusion (MCAO) cerebral ischemia lesions in rats. It counts as in vivo, rat. Conditions: for Infarcted Volume (X ± SEM mm^3): vehicle D.W. 214.75 ± 26.37. An excerpt:
The same effects of preventing the ischemia-reperfusion damages with aporphine and oxoaporphine compounds also found in the other organs, such as brain. After Compound 16 or Compound 21, which is a compound of Formula B (where R1, R2, R5, R6 are OMe, R3, R4, R7 are H) was administrated to male Sprague Dawley rats, the effects of test compounds on the artery occlusive cerebral ischemia in the rats were monitored. First, permanent brain ischemia was induced by middle cerebral artery occlusion (MCAO) in the rats. At 0, 6, 24, 48, and 54 hours after the formation of middle cerebral artery occlusion (MCAO), Group I (i.e., the control group) animals were given the solvent (100% DMSO) (1 ml/kg, i.p.); Group II (i.e., the control group) animals were given the distilled water (D.W.) (1 ml/kg, i.p.);Group III animals (NCM-121) were given Compound 16 (1.5 mg/kg, i.p.); Group IV animals (NCM-124) were given Compound 21 (1.7 mg/kg, i.p); Group V animals were given MK-801 (0.3 mg/kg, i.p.), an antagonist of the N-methyl-D-aspartic acid (NMDA) receptor. There were ten rats in each group. Four days after the formation of MCAO, all the rats were sacrificed. Brain sections were made and stained with 2% cresol purple. The areas and volumes of cerebral ischemia lesions in each section were recorded.

Marks after values point to notes of the source that are not given here.

Consider `COc1cc2c(cc1OC(C)C)C(=O)C1c3c(cc(OC(C)C)c(OC)c3-2)CCN1C` (stereo not drawn) [Compound 3, 2,9-Diisopropyloxy-1,10-dimethoxy-7-oxoaporphine], for which the melting point (as a rule, the temperature of the solid-liquid transition) was in the range of 82 to 84 °C.
On the same count and under the same terms, the figure for `COc1cc2c(cc1O)C(=O)C1c3c(cc(OC(C)C)c(OC)c3-2)CCN1C` (stereo not drawn) [Compound 4, 9-hydroxy-2-isopropyloxy-1,10-dimethoxy-7-oxoaporphine] is 240 to 242 °C; for `COc1ccc2c(c1)-c1c(OC)ccc3c1C(C2=O)N(C)CC3` (stereo not drawn) [Compound 7, 1,10-dimethoxy-7-oxoaporphine] it is 162 to 164 °C.
As for `COc1cc2c(cc1OC)-c1c(O)c(OC)cc3c1C(C2)N(C)CC3` (stereo not drawn) [Compound 20], in series [1], the coronary blood flow entry is given as “increasing coronary blood flow”. Further, in the series with eNOS, the “reduction in eNOS protein expression caused by ischemia and reperfusion” value is “significantly reduced”. Besides, the infarct size in series [2] is recorded as 34±4 % of the area at risk. The “blood flow in brain (striatal blood flow)” value in series [3] is “increase in blood flow in brain”. In addition, the “serum glucose Percentage of change (%)” value in series [4] (3 mg/kg × 3 days, iv, 90 minutes after last dose vs pre-treatment) was 12 ± 3.5%.
As to `COc1cc2c(cc1OC)-c1c(OC)c(OC)cc3ccnc(c13)C2=O` [Compound 21], in series [1], the coronary blood flow entry is given as “increasing coronary blood flow”. Besides, the “Infarcted Volume (X ± SEM mm^3)” value in the series on MCAO rats (IP 1.7 mg/kg × 6, N=10, four days after MCAO) was 133.75 ± 19.57* mm^3. Further, the “% Decrease in total volume of ischemic lesions” value in the series on MCAO rats (IP 1.7 mg/kg × 6, vs Group II vehicle (D.W.)) is 37.72%. Further, the “effects in reducing the areas and volumes of cerebral ischemia lesions as compared with MK-801” value in the series with MCAO rats (comparison in words) is “more significant effects”.
For `C[C@]12N[C@H](Cc3ccccc31)c1ccccc12` [MK-801, reference compound], the “Infarcted Volume (X ± SEM mm^3)” value in the series with MCAO rats (IP 0.3 mg/kg × 6, N=10, four days after MCAO) is given as 47.34 ± 13.79* mm^3. Further, in the series with MCAO rats (IP 0.3 mg/kg × 6, vs Group II vehicle (D.W.)), the “% Decrease in total volume of ischemic lesions” value is recorded as 77.96%.
`CN(C)C(=N)N=C(N)N` [Metformin, reference compound]: the “serum glucose Percentage of change (%)” value in series [4] (100 mg/kg × 3 days, po) was determined as 39 ± 1.6%.
